Several values for one entry are separate records, joined by “and”; a condition that tells them apart may be missing. Equal entries are not always repeated.
What was measured:
[1] = (§1) Human liver microsomal stability of compound in microsomal protein, PBS buffer pH 7.4, NADPH, glucose-6-phosphate and glucose-6-phosphate dehydrogenase media. Aliquotes were taken at 5 time points and after stopping the reaction, supernatants were analyzed using HPLC coupled with a tandem mass spectrometer. The elimination constant, half-life, and intrinsic clearance are determined as results using linear regression analysis. The assay has been performed by Enamine biological services, Bienta Ltd.The protocol is publicly available: dx.doi.org/10.17504/protocols.io.5qpvokdb9l4o/v1; type: ADME, microsomes, Microsome; settings: for Remaining (without cofactor) / CLint / T1/2 / Remaining: microsomes; for half-life / microsomal CLint: liver microsomes
[2] = as §1, with “Mouse” for “Human”; type: ADME, microsomes, Microsome; settings: for half-life / microsomal CLint: liver microsomes; for CLint / Remaining / Remaining (without cofactor) / T1/2: microsomes
Wherever Remaining (without cofactor) is given: time not given here.
Wherever Remaining is given: time not given here.

CNC(=O)c1cc2c(N[C@@H](c3ccc4c(c3)NC(=O)CO4)C(C)C)ncnc2[nH]1
Remaining (without cofactor) [1]: 94% and 96% | half-life [2]: 84.4 min | microsomal CLint [2]: 20 µL/min/mg | CLint [2]: 33 µL/min/mg | Remaining [2]: 71% and 57% | Remaining (without cofactor) [2]: 103% and 99% | T1/2 [2]: 51.2 min

CNCc1cc(-c2cc3c(N[C@@H](c4ccc5c(c4)S(=O)(=O)CCC5)C(C)C)ncnc3[nH]2)co1
CLint [1]: 57 µL/min/mg and 133 µL/min/mg | Remaining (without cofactor) [1]: 110% and 95% | T1/2 [1]: 29.4 min and 12.6 min | half-life [2]: 32.2 min | microsomal CLint [2]: 52 µL/min/mg | CLint [2]: 54 µL/min/mg | Remaining [2]: 41% and 35% | Remaining (without cofactor) [2]: 108% and 101% | T1/2 [2]: 30.9 min

O=C(Nc1ccccc1)Nc1ccc(C(=O)NC2c3cccc(O)c3CC2C(=O)O)cc1 (stereo not drawn)
half-life [1]: 187 min | microsomal CLint [1]: 9 µL/min/mg | Remaining [1]: 123% | Remaining (without cofactor) [1]: 96% | half-life [2]: 1070 min | microsomal CLint [2]: 2 µL/min/mg | Remaining [2]: 111% | Remaining (without cofactor) [2]: 99%

CCNC(=O)c1cc2c(N[C@H](c3ccc4c(c3)S(=O)(=O)CCC4)C(C)C)ncnc2[nH]1
half-life [1]: 15.4 min | microsomal CLint [1]: 109 µL/min/mg | Remaining [1]: 17% | Remaining (without cofactor) [1]: 102% | half-life [2]: 26.3 min | microsomal CLint [2]: 64 µL/min/mg | Remaining [2]: 34% | Remaining (without cofactor) [2]: 97%

COc1ccc([C@H](Cc2nnn[nH]2)NC(=O)c2ncnc3[nH]ccc23)cc1
half-life [1]: 1090 min | microsomal CLint [1]: 2 µL/min/mg | Remaining [1]: 105.597% | Remaining (without cofactor) [1]: 84.68% | half-life [2]: 206 min | microsomal CLint [2]: 7 µL/min/mg | Remaining [2]: 115.387% | Remaining (without cofactor) [2]: 100.411%

CC(C)[C@@H](Nc1ncnc2[nH]c(-c3cnn(C)c3C#N)cc12)c1ccc2c(n1)OCCO2
Remaining (without cofactor) [1]: 104% and 98% and 93% | CLint [2]: 169 µL/min/mg and 139 µL/min/mg and 371 µL/min/mg | Remaining [2]: 6% and 10% and 1% | Remaining (without cofactor) [2]: 110% and 101% and 99% | T1/2 [2]: 9.9 min and 12 min and 4.5 min

CNC(=O)Cn1cc(-c2cc3c(N[C@@H](c4ccc5c(c4)S(=O)(=O)CCC5)C(C)C)ncnc3[nH]2)cn1
CLint [1]: 94 µL/min/mg and 237 µL/min/mg | Remaining (without cofactor) [1]: 96% and 89% | T1/2 [1]: 17.7 min and 7 min | half-life [2]: 21.6 min | microsomal CLint [2]: 77 µL/min/mg | CLint [2]: 44 µL/min/mg | Remaining [2]: 26% and 48% | Remaining (without cofactor) [2]: 103% and 90% | T1/2 [2]: 37.8 min

CNCc1cc(-c2cc3c(N[C@@H](c4ccc5c(c4)S(=O)(=O)NCC5)C(C)C)ncnc3[nH]2)co1
half-life [1]: 35.9 min | microsomal CLint [1]: 46 µL/min/mg | Remaining [1]: 47% | Remaining (without cofactor) [1]: 93% | half-life [2]: 40 min | microsomal CLint [2]: 42 µL/min/mg | Remaining [2]: 49% | Remaining (without cofactor) [2]: 95%

CC(C)[C@@H](Nc1ncnc2[nH]cc(C(=O)NC3CC3)c12)c1ccc2c(c1)S(=O)(=O)CCC2
Remaining (without cofactor) [1]: 90% and 111% | Remaining [2]: 2% and 0% | Remaining (without cofactor) [2]: 101% and 102%

Cc1nn(C)cc1-c1cc2c(N[C@H](c3ccc4c(c3)S(=O)(=O)CCC4)C(C)C)ncnc2[nH]1
half-life [1]: 6.1 min | microsomal CLint [1]: 273 µL/min/mg | Remaining [1]: 1% | Remaining (without cofactor) [1]: 113% | half-life [2]: 8.3 min | microsomal CLint [2]: 202 µL/min/mg | Remaining [2]: 4% | Remaining (without cofactor) [2]: 104%

CC(C)(C)[C@H](Nc1ncnc2[nH]c(-c3cnn(CC(N)=O)c3)cc12)c1ccc2c(c1)OCCO2
half-life [1]: 10.9 min | microsomal CLint [1]: 153 µL/min/mg | Remaining [1]: 9% | Remaining (without cofactor) [1]: 100% | half-life [2]: 38.3 min | microsomal CLint [2]: 44 µL/min/mg | Remaining [2]: 48% | Remaining (without cofactor) [2]: 105%

CNC(=O)Cn1cc(-c2cc3c(N[C@H](c4ccc5c(c4)S(=O)(=O)CCC5)C(C)C)ncnc3[nH]2)cn1
half-life [1]: 18.1 min | microsomal CLint [1]: 92 µL/min/mg | Remaining [1]: 23% | Remaining (without cofactor) [1]: 101% | half-life [2]: 15 min | microsomal CLint [2]: 111 µL/min/mg | Remaining [2]: 16% | Remaining (without cofactor) [2]: 96%

CC(C)[C@@H](Nc1ncnc2[nH]cc(C(N)=O)c12)c1ccc2c(c1)OCCO2
half-life [1]: 11.7 min | microsomal CLint [1]: 143 µL/min/mg | Remaining [1]: 9% | Remaining (without cofactor) [1]: 110% | half-life [2]: 11.7 min | microsomal CLint [2]: 142 µL/min/mg | Remaining [2]: 9% | Remaining (without cofactor) [2]: 98%

CC(C)[C@H](Nc1ncnc2[nH]c(-c3cnn(C)c3C#N)cc12)c1ccc2c(c1)OCCO2
half-life [1]: 2.4 min | microsomal CLint [1]: 706 µL/min/mg | Remaining [1]: 1% | Remaining (without cofactor) [1]: 103% | half-life [2]: 6.5 min | microsomal CLint [2]: 257 µL/min/mg | Remaining [2]: 2% | Remaining (without cofactor) [2]: 113%

CC(C)[C@H](Nc1ncnc2[nH]c(C(=O)N[C@H]3CCN(C)C3)cc12)c1ccc2c(c1)S(=O)(=O)CCC2
half-life [1]: 150 min | microsomal CLint [1]: 11 µL/min/mg | Remaining [1]: 80% | Remaining (without cofactor) [1]: 98% | half-life [2]: 1540 min | microsomal CLint [2]: 1 µL/min/mg | Remaining [2]: 98% | Remaining (without cofactor) [2]: 97%

CNC(=O)c1c[nH]c2ncnc(N[C@@H](c3ccc4c(c3)OCCO4)C(C)C)c12
half-life [1]: 21.2 min | microsomal CLint [1]: 79 µL/min/mg | Remaining [1]: 27% | Remaining (without cofactor) [1]: 113% | half-life [2]: 19 min | microsomal CLint [2]: 88 µL/min/mg | Remaining [2]: 20% | Remaining (without cofactor) [2]: 95%

CNC(=O)c1c[nH]c2ncnc(N[C@H](c3ccc4c(c3)S(=O)(=O)CCC4)C(C)C)c12
half-life [1]: 6.5 min | microsomal CLint [1]: 258 µL/min/mg | Remaining [1]: 1% | Remaining (without cofactor) [1]: 94% | half-life [2]: 2.2 min | microsomal CLint [2]: 770 µL/min/mg | Remaining [2]: 0% | Remaining (without cofactor) [2]: 99%

CC(C)[C@@H](Nc1ncnc2[nH]c(-c3cncc(S(C)(=O)=O)c3)cc12)c1ccc2c(c1)S(=O)(=O)CCC2
half-life [1]: 2.6 min | microsomal CLint [1]: 635 µL/min/mg | Remaining [1]: 1% | Remaining (without cofactor) [1]: 104% | half-life [2]: 6.1 min | microsomal CLint [2]: 272 µL/min/mg | Remaining [2]: 1% | Remaining (without cofactor) [2]: 112%

C[C@H](C(=O)O)[C@@H](NC(=O)c1ncnc2[nH]ccc12)c1ccc(Br)cc1
half-life [1]: 574 min | microsomal CLint [1]: 3 µL/min/mg | Remaining [1]: 92.211% | Remaining (without cofactor) [1]: 101.611% | half-life [2]: 380 min | microsomal CLint [2]: 4 µL/min/mg | Remaining [2]: 111.226% | Remaining (without cofactor) [2]: 100.245%

CC(C)[C@H](Nc1ncnc2[nH]c(-c3cnn(CC(N)=O)c3)cc12)c1ccc2c(c1)S(=O)(=O)CCC2
half-life [1]: 7 min | microsomal CLint [1]: 240 µL/min/mg | Remaining [1]: 2% | Remaining (without cofactor) [1]: 115% | half-life [2]: 42.6 min | microsomal CLint [2]: 39 µL/min/mg | Remaining [2]: 53% | Remaining (without cofactor) [2]: 98%

Cn1ncc(-c2cc3c(N[C@@H](c4ccc5c(n4)OCCO5)C(C)(C)C)ncnc3[nH]2)c1C#N
Remaining (without cofactor) [1]: 91% and 108% and 85% | half-life [2]: 8 min | microsomal CLint [2]: 209 µL/min/mg | CLint [2]: 188 µL/min/mg and 226 µL/min/mg | Remaining [2]: 4% and 5% and 2% | Remaining (without cofactor) [2]: 101% and 106% and 94% | T1/2 [2]: 8.9 min and 7.4 min

C[C@@H](C(=O)O)[C@@H](NC(=O)c1ncnc2[nH]ccc12)c1ccc(Br)cc1
half-life [1]: 338 min | microsomal CLint [1]: 5 µL/min/mg | Remaining [1]: 103% | Remaining (without cofactor) [1]: 110% | half-life [2]: 433 min | microsomal CLint [2]: 4 µL/min/mg | Remaining [2]: 94% | Remaining (without cofactor) [2]: 109%

CC(C)[C@@H](Nc1ncnc2[nH]c(-c3cnn(C)c3)cc12)c1ccc2c(c1)S(=O)(=O)CCC2
CLint [1]: 141 µL/min/mg and 405 µL/min/mg | Remaining [1]: 10% and 0% | Remaining (without cofactor) [1]: 102% and 105% | T1/2 [1]: 11.9 min and 4.1 min | half-life [2]: 10.8 min | microsomal CLint [2]: 155 µL/min/mg | CLint [2]: 140 µL/min/mg | Remaining [2]: 7% and 10% | Remaining (without cofactor) [2]: 102% | T1/2 [2]: 11.9 min

CC(C)[C@@H](Nc1ncnc2[nH]ccc12)c1ccc2c(c1)NC(=O)CO2
half-life [1]: 79 min | microsomal CLint [1]: 21 µL/min/mg | CLint [1]: 31 µL/min/mg | Remaining [1]: 73% and 56% | Remaining (without cofactor) [1]: 105% and 92% | T1/2 [1]: 54.3 min | half-life [2]: 21.4 min | microsomal CLint [2]: 78 µL/min/mg | CLint [2]: 80 µL/min/mg | Remaining [2]: 27% and 26% | Remaining (without cofactor) [2]: 93% and 110% | T1/2 [2]: 20.9 min

CC(C)[C@@H](Nc1ncnc2[nH]c(-c3cnn(C)c3C#N)cc12)c1ccc2c(c1)OCCO2
half-life [1]: 22.6 min | microsomal CLint [1]: 74 µL/min/mg | CLint [1]: 47 µL/min/mg | Remaining [1]: 25% and 46% | Remaining (without cofactor) [1]: 111% and 101% | T1/2 [1]: 35.4 min | half-life [2]: 7.7 min | microsomal CLint [2]: 218 µL/min/mg | CLint [2]: 129 µL/min/mg | Remaining [2]: 3% and 13% | Remaining (without cofactor) [2]: 97% and 106% | T1/2 [2]: 13 min

CC(C)[C@@H](Nc1ncnc2[nH]c(-c3cnn(C)c3)cc12)c1ccc2c(c1)S(=O)(=O)NCC2
half-life [1]: 13.9 min | microsomal CLint [1]: 120 µL/min/mg | Remaining [1]: 13% | Remaining (without cofactor) [1]: 98% | half-life [2]: 19.1 min | microsomal CLint [2]: 87 µL/min/mg | Remaining [2]: 23% | Remaining (without cofactor) [2]: 92%

CC(C)(C)[C@H](Nc1ncnc2[nH]c(-c3cnn(CC(N)=O)c3)cc12)c1ccc2c(n1)OCCO2
half-life [1]: 60.8 min | microsomal CLint [1]: 27 µL/min/mg | Remaining [1]: 64% | Remaining (without cofactor) [1]: 95% | half-life [2]: 162 min | microsomal CLint [2]: 10 µL/min/mg | Remaining [2]: 88% | Remaining (without cofactor) [2]: 116%
